One assay has as its target TBK1 (Homo sapiens (Human), UniProt Q9UHD2). Briefly: TBK1 TR-FRET enzymatic assay.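 Further: phosphorylation of a biotinylated Ser/Thr peptide by purified full-length recombinant TBK1, read by TR-FRET after 240 min at 25 °C, IC50 is the geometric mean of at least four runs.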 Background: In TR-FRET formats the signal depends on donor and acceptor labels being close together.
The target in a further assay is IKKε (Homo sapiens (Human), UniProt Q14164). The assay is described as follows: IKKε TR-FRET enzymatic assay. The class given is biochemical. As to conditions: read-out: IKKe IC50.
Chain of IKKε (Q14164 whole entry): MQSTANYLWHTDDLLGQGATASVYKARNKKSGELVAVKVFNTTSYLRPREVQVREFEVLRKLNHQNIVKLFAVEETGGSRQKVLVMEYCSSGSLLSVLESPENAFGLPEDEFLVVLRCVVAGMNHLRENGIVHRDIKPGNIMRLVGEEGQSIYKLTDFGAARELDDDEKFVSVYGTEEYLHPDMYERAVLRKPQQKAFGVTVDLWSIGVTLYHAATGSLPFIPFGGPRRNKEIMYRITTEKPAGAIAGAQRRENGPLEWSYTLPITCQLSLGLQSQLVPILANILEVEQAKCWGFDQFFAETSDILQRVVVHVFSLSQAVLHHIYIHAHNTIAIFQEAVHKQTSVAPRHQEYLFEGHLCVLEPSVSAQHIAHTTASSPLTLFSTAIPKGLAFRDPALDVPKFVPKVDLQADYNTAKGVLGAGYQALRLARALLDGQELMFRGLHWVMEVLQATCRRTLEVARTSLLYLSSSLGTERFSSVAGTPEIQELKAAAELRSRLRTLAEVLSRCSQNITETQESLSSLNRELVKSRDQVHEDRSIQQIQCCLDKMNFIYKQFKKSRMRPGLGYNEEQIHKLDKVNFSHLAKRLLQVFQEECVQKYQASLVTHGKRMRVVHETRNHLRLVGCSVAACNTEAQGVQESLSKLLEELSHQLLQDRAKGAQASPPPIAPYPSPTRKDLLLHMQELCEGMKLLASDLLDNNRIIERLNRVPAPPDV
The mark [1] stands for this setting: TR-FRET, 2×Km ATP, geometric mean of minimum four determinations.

Read-outs that look alike come from different tables or passages of the source.

Chain of TBK1 (Q9UHD2 whole entry): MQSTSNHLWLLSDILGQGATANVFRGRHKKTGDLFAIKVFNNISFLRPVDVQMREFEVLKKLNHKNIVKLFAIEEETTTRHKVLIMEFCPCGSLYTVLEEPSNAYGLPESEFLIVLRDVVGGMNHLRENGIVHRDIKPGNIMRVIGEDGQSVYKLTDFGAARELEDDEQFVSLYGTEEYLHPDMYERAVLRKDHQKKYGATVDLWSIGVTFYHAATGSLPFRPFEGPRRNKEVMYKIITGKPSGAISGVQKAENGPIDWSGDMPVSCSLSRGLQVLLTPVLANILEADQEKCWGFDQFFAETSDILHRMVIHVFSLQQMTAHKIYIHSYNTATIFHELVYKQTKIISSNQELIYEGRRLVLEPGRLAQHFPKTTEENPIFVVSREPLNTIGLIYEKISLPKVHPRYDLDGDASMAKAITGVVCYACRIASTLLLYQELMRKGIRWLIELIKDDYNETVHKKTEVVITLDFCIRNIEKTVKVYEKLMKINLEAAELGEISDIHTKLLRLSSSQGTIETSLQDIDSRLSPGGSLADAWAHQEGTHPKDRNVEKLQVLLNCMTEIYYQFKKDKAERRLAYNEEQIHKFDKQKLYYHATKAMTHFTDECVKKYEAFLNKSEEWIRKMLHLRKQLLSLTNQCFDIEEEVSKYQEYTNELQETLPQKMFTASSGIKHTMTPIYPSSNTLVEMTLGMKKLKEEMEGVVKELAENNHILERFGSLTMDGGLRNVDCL

As a reminder, the IC50 is the concentration needed to halve the response being measured. With `N#Cc1cc(-c2ncnc(Nc3ccc(N4CCN(C5COC5)CC4)cc3)n2)ccc1O[C@H]1CCN(C(=O)c2cnn[nH]2)CC1(F)F` [Example 165, (S)-2-((3,3-difluoro-1-(1H-1,2,3-triazole-5-carbonyl)piperidin-4-yl)oxy)-5-(4-((4-(4-(oxetan-3-yl)piperazin-1-yl)phenyl)amino)-1,3,5-triazin-2-yl)benzonitrile], the IC50 against TBK1 was 2 nM; at IKKε it was 1 nM.
The corresponding values for `N#Cc1cc(-c2ncnc(Nc3ccc(N4CCN(C5COC5)CC4)cc3)n2)ccc1OC1CCN(C(=O)c2ncc[nH]2)CC1` [Example 189, 2-((1-(1H-imidazole-2-carbonyl)piperidin-4-yl)oxy)-5-(4-((4-(4-(oxetan-3-yl)piperazin-1-yl)phenyl)amino)-1,3,5-triazin-2-yl)benzonitrile] are 5 nM and 19 nM.
For `CN1CC2(CCN(c3ccc(-c4ncnc(Nc5ccc(N6CCN(C7COC7)CC6)cc5)n4)cc3C#N)CC2)C1` [Example 209, 2-(2-methyl-2,7-diazaspiro[3.5]nonan-7-yl)-5-(4-((4-(4-(oxetan-3-yl)piperazin-1-yl)phenyl)amino)-1,3,5-triazin-2-yl)benzonitrile] the same measures were 49 nM and 213 nM.
With `N#Cc1cc(-c2ncnc(Nc3ccc(N4CCN(C5COC5)CC4)cc3)n2)ccc1O[C@H]1CCOC1` [Example 216, (S)-5-(4-((4-(4-(oxetan-3-yl)piperazin-1-yl)phenyl)amino)-1,3,5-triazin-2-yl)-2-((tetrahydrofuran-3-yl)oxy)benzonitrile], the IC50 on TBK1 is 13 nM; on IKKε, 42 nM.
For `C[C@H]1CN(C2COC2)CCN1c1ccc(Nc2ncnc(-c3ccc(O[C@H]4CCN(C(=O)c5cnn[nH]5)CC4(F)F)c(C#N)c3)n2)cc1` [Example 258, 2-(((S)-3,3-difluoro-1-(1H-1,2,3-triazole-5-carbonyl)piperidin-4-yl)oxy)-5-(4-((4-((S)-2-methyl-4-(oxetan-3-yl)piperazin-1-yl)phenyl)amino)-1,3,5-triazin-2-yl)benzonitrile] the same measures were 3 nM and 1 nM.
With `CS(=O)(=O)OC1CN(c2ccc(-c3ncnc(Nc4ccc(N5CCN(C6COC6)CC5)cc4)n3)cc2C#N)C1` [Example 276, 1-(2-cyano-4-(4-((4-(4-(oxetan-3-yl)piperazin-1-yl)phenyl)amino)-1,3,5-triazin-2-yl)phenyl)azetidin-3-yl methanesulfonate], the IC50 came to 23 nM on TBK1 and 38 nM at IKKε.
The corresponding values for `Cc1nnsc1COc1ccc(-c2ncnc(Nc3ccc(N4CCN(C5COC5)CC4)cc3)n2)cc1C#N` [Example 284, 2-((4-methyl-1,2,3-thiadiazol-5-yl)methoxy)-5-(4-((4-(4-(oxetan-3-yl)piperazin-1-yl)phenyl)amino)-1,3,5-triazin-2-yl)benzonitrile] are 475 nM and ≥ 1000 nM.
For `COC(=O)N1CC[C@H](Oc2ccc(-c3ncnc(Nc4ccc(N5CCN(C6COC6)CC5)cc4)n3)cc2C#N)[C@H](F)C1` [Example 290, (3R,4S)-methyl 4-(2-cyano-4-(4-((4-(4-(oxetan-3-yl)piperazin-1-yl)phenyl)amino)-1,3,5-triazin-2-yl)phenoxy)-3-fluoropiperidine-1-carboxylate] the same measures were 13 nM and 32 nM.
For `N#Cc1cc(-c2ncnc(Nc3ccc(N4CCNCC4)c(F)c3)n2)ccc1O[C@H]1CCOC[C@H]1F` [Example 298, 5-(4-((3-fluoro-4-(piperazin-1-yl)phenyl)amino)-1,3,5-triazin-2-yl)-2-(((3R,4S)-3-fluorotetrahydro-2H-pyran-4-yl)oxy)benzonitrile] the same measures were 4 nM and 1 nM.
Regarding `N#Cc1cc(-c2ncnc(Nc3ccc(N4CCN(C5COC5)CC4)cc3)n2)ccc1O[C@H]1CCN(C(=O)c2cnc(N)cn2)C[C@H]1F` [Example 341, 2-(((3R,4S)-1-(5-aminopyrazine-2-carbonyl)-3-fluoropiperidin-4-yl)oxy)-5-(4-((4-(4-(oxetan-3-yl)piperazin-1-yl)phenyl)amino)-1,3,5-triazin-2-yl)benzonitrile], the IC50 against TBK1 turned out to be 2 nM; at IKKε, 1 nM.
As for `Cc1nc(C)c(C(=O)N2CC[C@H](Oc3ccc(-c4ncnc(Nc5ccc(N6CCN(C7COC7)CC6)cc5)n4)cc3C#N)[C@H](F)C2)[nH]1` [Example 345, 2-(((3R,4S)-1-(2,4-dimethyl-1H-imidazole-5-carbonyl)-3-fluoropiperidin-4-yl)oxy)-5-(4-((4-(4-(oxetan-3-yl)piperazin-1-yl)phenyl)amino)-1,3,5-triazin-2-yl)benzonitrile], the IC50 was 10 nM against TBK1 and 12 nM at IKKε.
With `C[C@H](O)C(=O)N1CC[C@H](Oc2ccc(-c3ncnc(Nc4ccc(N5CCC(C)(O)CC5)cc4)n3)cc2C#N)[C@H](F)C1` [Example 355, 2-(((3R,4S)-3-fluoro-1-((S)-2-hydroxypropanoyl)piperidin-4-yl)oxy)-5-(4-((4-(4-hydroxy-4-methylpiperidin-1-yl)phenyl)amino)-1,3,5-triazin-2-yl)benzonitrile], the IC50 against TBK1 was determined as 4 nM; at IKKε, 2 nM.
For `N#Cc1cc(-c2ncnc(Nc3ccc(N4CCN(C5COC5)CC4)cc3)n2)ccc1O[C@H]1CCN(C(=O)Cn2cnnc2)C[C@H]1F` [Example 377, 2-(((3R,4S)-1-(2-(4H-1,2,4-triazol-4-yl)acetyl)-3-fluoropiperidin-4-yl)oxy)-5-(4-((4-(4-(oxetan-3-yl)piperazin-1-yl)phenyl)amino)-1,3,5-triazin-2-yl)benzonitrile] the same measures were 37 nM and 129 nM.
For `C[C@H](O)C(=O)N1CC[C@H](Oc2ccc(-c3ncnc(Nc4ccc(N5CCOC[C@@H]5CO)cc4)n3)cc2C#N)[C@H](F)C1` [Example 387, 2-(((3R,4S)-3-fluoro-1-((S)-2-hydroxypropanoyl)piperidin-4-yl)oxy)-5-(4-((4-((S)-3-(hydroxymethyl)morpholino)phenyl)amino)-1,3,5-triazin-2-yl)benzonitrile] the same measures were 3 nM and 2 nM.
As for `N#Cc1cc(-c2ncnc(Nc3ccc(N4CCN(C5COC5)CC4)c(F)c3)n2)ccc1O[C@H]1CCN(C(=O)[C@@H](O)CO)C[C@H]1F` [Example 409, 2-(((3R,4S)-1-((S)-2,3-dihydroxypropanoyl)-3-fluoropiperidin-4-yl)oxy)-5-(4-((3-fluoro-4-(4-(oxetan-3-yl)piperazin-1-yl)phenyl)amino)-1,3,5-triazin-2-yl)benzonitrile], the IC50 on TBK1 came to 2 nM; at IKKε (setting [1]) it was 1 nM.
Consider `C[C@H]1C[C@H](Oc2ccc(-c3ncnc(Nc4ccc(N5CCN(C6COC6)CC5)cc4)n3)cc2C#N)[C@H](F)CN1C(=O)[C@H]1CCC(=O)N1` [Example 411, 2-(((2S,4S,5R)-5-fluoro-2-methyl-1-((R)-5-oxopyrrolidine-2-carbonyl)piperidin-4-yl)oxy)-5-(4-((4-(4-(oxetan-3-yl)piperazin-1-yl)phenyl)amino)-1,3,5-triazin-2-yl)benzonitrile], for which the IC50 at TBK1 is 533 nM; at IKKε (setting [1]), ≥ 1000 nM.
The corresponding values for `C[C@H]1C[C@H](Oc2ccc(-c3ncnc(Nc4ccc(N5CCN(C6COC6)CC5)cc4)n3)cc2C#N)[C@H](F)CN1C(=O)[C@@H]1CCC(=O)N1` [Example 416, 2-(((2S,4S,5R)-5-fluoro-2-methyl-1-((S)-5-oxopyrrolidine-2-carbonyl)piperidin-4-yl)oxy)-5-(4-((4-(4-(oxetan-3-yl)piperazin-1-yl)phenyl)amino)-1,3,5-triazin-2-yl)benzonitrile] are 64 nM and 124 nM.
For `N#Cc1cc(-c2ncnc(Nc3ccc(N4CCN(C5COC5)CC4)cc3)n2)ccc1O[C@H]1CCN(C(=O)c2nc(=O)[nH][nH]2)C[C@H]1F` [Example 437, 2-(((3R,4S)-3-fluoro-1-(5-oxo-2,5-dihydro-1H-1,2,4-triazole-3-carbonyl)piperidin-4-yl)oxy)-5-(4-((4-(4-(oxetan-3-yl)piperazin-1-yl)phenyl)amino)-1,3,5-triazin-2-yl)benzonitrile] the same measures were 4 nM and 2 nM.
For `N#Cc1cc(-c2ncnc(Nc3cnn(C(F)F)c3)n2)ccc1O[C@H]1CCN(C(=O)[C@@H](O)CO)C[C@H]1F` [Example 456] the same measures were 4 nM and 7 nM.
Turning to `C[C@H](O)C(=O)N1CC[C@H](Oc2ccc(-c3ncnc(Nc4cnn(C(F)F)c4)n3)cc2C#N)[C@H](F)C1` [Example 457, 5-(4-((1-(difluoromethyl)-1H-pyrazol-4-yl)amino)-1,3,5-triazin-2-yl)-2-(((3R,4S)-3-fluoro-1-((S)-2-hydroxypropanoyl)piperidin-4-yl)oxy)benzonitrile], the results for the IC50 against TBK1 and on IKKε (setting [1]) were 13 nM and 20 nM, respectively.
For `N#Cc1cc(-c2ncnc(Nc3ccc(N4CCN5CCOC[C@H]5C4)cc3)n2)ccc1O[C@H]1CCN(C(=O)[C@@H]2CCC(=O)N2)C[C@H]1F` [Example 466, 2-(((3R,4S)-3-fluoro-1-((S)-5-oxopyrrolidine-2-carbonyl)piperidin-4-yl)oxy)-5-(4-((4-((R)-hexahydropyrazino[2,1-c][1,4]oxazin-8(1H)-yl)phenyl)amino)-1,3,5-triazin-2-yl)benzonitrile] the same measures were 4 nM and 5 nM.
The corresponding values for `Cc1cc(Nc2ncnc(-c3ccc(O[C@@H]4CCC(=O)NC4)c(C#N)c3)n2)ccc1N1CCN(C2COC2)CC1` [Example 532, (R)-5-(4-((3-methyl-4-(4-(oxetan-3-yl)piperazin-1-yl)phenyl)amino)-1,3,5-triazin-2-yl)-2-((6-oxopiperidin-3-yl)oxy)benzonitrile] are 3 nM and 2 nM.

The values above are taken from patent US10040781B2, “Tank-binding kinase inhibitor compounds” (Gilead Sciences, Inc., priority 2014, dated 2018).
